Experimental data reported in US20090035385A1, “COMPOSITIONS INCLUDING IRON” (DRUGTECH CORPORATION, priority 2004, published 2009).
Where two headings read alike, the source gives them in different places.

How the values were obtained:
[1] = test system: gastrointestinal iron absorption; settings: cited from earlier work
[2] = daily administration, 50 mg of elemental iron; based on generally accepted iron absorption rates
[3] = intravenous administration of the promoter
[4] = oral administration of the promoter

Row | Compound | effect on gastrointestinal iron absorption [1, 3] | effect on gastrointestinal iron absorption [1, 4] | time required to supply 450 mg of iron for RBC regeneration and 300 mg of iron to replenish iron stores [2]
1 | O=C1O[C@H]([C@@H](O)CO)C(O)=C1O [Ascorbic acid, ascorbic acid] | not increased | enhance gastrointestinal iron absorption | 
2 | ferrous sulfate |  |  | approximately 9 months
3 | O=C(O)CCC(=O)O [Succinic acid, succinic acid] | enhance gastrointestinal iron absorption | enhance gastrointestinal iron absorption | 
